Test results from publication PMC9909315, “SY-707, an ALK/FAK/IGF1R inhibitor, suppresses growth and metastasis of breast cancer cells” (Acta Biochimica et Biophysica Sinica, 2022).
Like-named read-outs stand apart in the source and are kept apart here.

Legend:
[1] = Pharmacokinetic study; format: in vivo, SD rats; conditions: SD, serum, Rat, 5 mg/kg PO; for CL/F: read-out: Cl_F_obs (converted); for MRT inf: read-out: MRT INF_obs
Experimental: […] […] The serum samples were collected by centrifugation and stored at –80 °C. Compound concentrations in the sample serums were further analyzed with an API-4000 LC-MS/MS system (Applied Biosystem, Foster City, USA), and pharmacokinetic parameters ( T 1/2, T max, C max, AUC 0-INF, Cl_F_obs, MRT INF_obs, and F(%)) were calcuated using the WinNonlin software (version 6.2; WinNonlin Professional, Pharsight, USA).

[2] = biological target: FAK, Pyk2, LTK, IRK and IGF1R; assay: HTRF kinase enzyme assay, summary over several kinases; format: biochemical; conditions: around; span over the named kinases
Experimental: Homogeneous time-resolved fluorescence (HTRF) assay was performed to analyze kinase enzyme activity and compound potency using HTRF ® KinEASE ^TM-TK kit (Cisbio Bioassays, Shanghai, China). Compound SY-707 was serially diluted by 3 folds from 1 mM stock solution in DMSO, and 4 μL of the diluted solution of the compounds was added to 96 μL of reaction buffer (50 mM HEPES, pH 7.0, 0.1 mM Na 3VO 4, 0.01% BAS, 5 mM MgCl 2, 1 mM DTT), then 2.5 μL of 4× compound solution and 5 μL of 2× kinases solution were added to a 384-well plate (OptiPlate-384; PerkinElmer, Wellesley, USA ). The resulted solutions were briefly mixed, centrifuged and incubated for 5 min. Finally, 2.5 μL of 4× ATP/TK peptide (ATP at K m for each kinase) solution was added to the reaction system to initiate the reaction. The enzymatic reaction was carried out for 60-120 min at 23°C, then terminated by addition of 5 μL of detection solution containing TK antibody-cryptate and 5 μL of Streptravidin-XL-665. The mixture was incubated for additional 1 h at 23°C. The fluorescent signals were measured with an EnVision multilabel plate reader (PerkinElmer). IC 50 values of the compounds were calculated using the GraFit software (Version 6.0) and presented as the mean of three independent experiments performed in duplicate.

[3] = system: phosphorylation of Pyk2 at Tyr402; assay: Western blot of Pyk2 phosphorylation in MCF-7 cells; format: cell-based; conditions: MCF-7, 1 h treatment
Experimental: Equal amounts of cell lysates were loaded onto 10% SDS-PAGE gel and separated by electrophoresis. Separated proteins were then electro-transferred onto polyvinylidene fluoride (PVDF) membranes (Millipore, Bedford, USA). After being blocked with Tris-buffered saline containing 0.1% Tween-20 (TBST) and 5% bovine serum albumin (BSA), the membranes were incubated with primary antibodies at room temperature for 2 hours or at 4°C, then washed with TBST, followed by treatment with horseradish peroxidase (HRP)-conjugated goat anti-rabbit IgG secondary antibody at room temperature for another 1 h. The targeted protein bands were visualized using an enhanced chemiluminescence (ECL) plus system (Thermo Fisher Scientific). […]
Figure4 Inhibitory effects of SY-707 on the phosphorylation of FAK(A,B) Concentration-dependent inhibition of SY-707 on phosphorylation of FAK in T47D (A) and MCF-7 (B) cells. […] Cell lysates were analyzed by western blot analysis using specific antibodies against p-FAK, p-Pyk2, p-AKT and p-ERK respectively. […] Cell lysates were analyzed by western blot analysis using specific antibodies against p-IGF1R, p-STAT3, p-AKT and p-ERK respectively.

[4] = system: phosphorylation of FAK at Tyr397 in T47D tumor tissue; assay: Pharmacokinetics/pharmacodynamics study in T47D xenograft model; format: in vivo, nude mice
Experimental: Figure5 Anti-tumor activities of SY-707 in breast cancer xenograftsXenograft tumors were established by inoculating T47D (A, B, C) cells or 4T1 (D) cells into the nude mice. Oral administration of SY-707 alone or combined with paclitaxel was initiated when tumors reached an average of approximately 150–300 mm3 in volume and continued through the experiment. Tumor volume was measured on the indicated days with the mean tumor volume±SD indicated for each group (10 mice/group). Each treatment group was compared to vehicle group with t-test. *P<0.05, **P<0.01. (B) The tumor tissues were harvested at 2 h after the last dosage of SY-707, compound levels in tumor tissues or plasma and the phosphorylation levels of FAK were analyzed.
To explore the relationship between the in vivo anti-tumor growth activities and the inhibition on FAK signaling, pharmacokinetics/pharmacodynamics studies were performed in T47D xenograft model.

[5] = system: MCF-7 cells; assay: Would healing (migration) assay; format: cell-based; conditions: MCF-7, 24 h, vs control
Experimental: (§1) Totally, 5×10 ^5 cells were plated into each well of 6-well plates, and cultured to 70%–80% confluence, then the cell monolayer was gently and slowly scratched with a new 1-mL pipette tip across the center of the well. After scratching, the wells were gently washed with PBS twice to remove the detached cells, and replenished with fresh medium containing indicated concentration of compounds. The treated cells were allowed to grow for additional 24 h, and images were capturedunder a microscope. The migration distance were calculated and analyzed to evaluate the effects of compounds.

[6] = system: T47D cells; assay: Would healing (migration) assay; format: cell-based; conditions: 24 h, vs control
Experimental: as §1

## COc1cc(N2CCC(N3CCN(C)CC3)CC2)ccc1Nc1nc2c(c(Nc3ccccc3S(=O)(=O)NC(C)C)n1)CCN2 [SY-707, N-isopropyl-2-((2-((2-methoxy-4-(4-(4-methylpiperazin-1-yl)piperidin-1-yl)phenyl)amino)-6,7-dihydro-5H-pyrrolo[2,3-d]pyrimidin-4-yl)amino)benzenesulfonamide]
[1]; Female
  AUC(0-inf): 8590 ng·h/mL
  Cmax: 639 ng/mL
  Tmax: 4.33 h
  bioavailability: 33.2%
  half-life: 11.2 h
  CL/F: 9.77 mL/min/kg
  MRT inf: 13.8 h
[1]; Male
  AUC(0-inf): 13300 ng·h/mL
  Cmax: 909 ng/mL
  Tmax: 3.33 h
  bioavailability: 38.3%
  half-life: 13 h
  CL/F: 6.3 mL/min/kg
  MRT inf: 15.5 h
[1]; both sexes, All
  AUC(0-inf): 11000 ng·h/mL
  Cmax: 774 ng/mL
  Tmax: 3.83 h
  bioavailability: 36.2%
  half-life: 12.1 h
  CL/F: 8.03 mL/min/kg
  MRT inf: 14.7 h
[2]
  IC50: 1 to 10 nM
[3]
  phosphorylation of Pyk2 at Tyr402: dose-dependently suppressed
[4]; 2 h after last dosage
  concentration in tumor samples compared to plasma: higher concentrations of SY-707 were also detected in tumor samples
[4]; tumor harvested 2 h after last dosage, vs control group
  phosphorylation level of FAK at Tyr397 in tumor: significantly decreased
[5]
  migration distance: significantly decreased
[6]
  migration distance: significantly decreased
